Like-named read-outs stand apart in the source and are kept apart here.
Key:
Hs27 cells = assay: Cytotoxicity assay (CellTiter 96 AQueous One) on Hs27; type: cell-based, human; conditions: for viability: Hs27, 24 h, dose 0 = 100.00, read-out: Growth inhibition data; for GI50: Hs27 cells, 24 h treatment
Experimental: The best antifungal and/or antiaflatoxigenic compounds were tested to determine their cytotoxic activity against human normal cell lines deriving from lung (HFL1, ATCC and CCL-153), skin (Hs27, ATCC, CRL1634) and colon (Crl1790, ATCC, CCD 841 CoN) and a cell line deriving from a hematological tumor (U937, ATCC and CRL-3253). These different cell lines have been chosen to simulate the different human exposition routes to pesticide. Cell culture conditions have been previously reported. Compound cytotoxicity was determined using CellTiter 96® AQueous One Solution Cell Proliferation Assay (Promega Corporation, Madison, WI, USA). The very detailed protocol was described by Bartoli et al.. In brief, cells were seeded in a 96-well plate at a density of 5000 cells/well and after 24 h cells were treated with different concentrations of the compounds (0.5–1–5–10–50–100 µM). After the treatment period (24 h), the CellTiter Reagent was added to each well (20 µL/well) and the plate incubated for 4 h at 37 °C. The plate was then read at 485 nm in a multiwell plate reader (TECAN SpectraFluor Plus, Männedorf, Switzerland).

A. flavus = assay: microbe, parasite or virus in culture; type: cell-based, Aspergillus flavus; conditions: for inhibition at 100 µM: Aspergillus flavus, read-out: G.I. (%) (A. flavus growth inhibition); for impact on fungal growth: 10 to 100 µM, complexes compared with their ligand
A. cepa root cells = conditions: for DNA damage as chromosomal aberrations in Allium root cells: 10.0 µM
Experimental: To detect micronuclei and chromosomal aberrations six equal-sized pre-germinated young bulbs per sample were exposed for 24 h to sample dilutions. The bulbs dedicated to the micronuclei test underwent an additional treatment in the saline solution for 44 h of recovery time to cover two rounds of mitosis so that damage induced in chromosomes during mitosis to be visible as micronuclei in interphase cells. Then all the roots were fixed in acetic acid and ethanol (1:3) for 24 h and lastly stored in 70% ethanol. The negative control was DMSO in Rank’s solution (the dose of DMSO corresponding to volume of samples) and positive control was maleic hydrazide (10^−2 M, 6 h exposure). […] All experiments were performed in duplicate.

A. cepa = A. cepa toxicity test (root length); type: in vivo, Allium cepa; conditions: in vivo
Experimental: A. cepa toxicity test: Twelve equal-sized young onion bulbs were exposed for 96 h in the dark to different concentrations of compounds dissolved in DMSO, changing the sample solution every day. […] Root macroscopic parameters such as turgescence, consistency, change in color and root tip shape, were used as toxicity indexes.

[1] = system: aflatoxin accumulation by A. flavus; assay: microbe, parasite or virus in culture; type: cell-based, Aspergillus flavus
[2] = system: S. typhimurium TA98 and TA100 strains; assay: Ames test, overall mutagenicity verdict in bacteria; conditions: TA98 and TA100, -S9 and +S9
[3] = Aspergillus flavus, read-out: A.I. (%) (aflatoxin accumulation inhibition)

| Compound | A.I. (%) (aflatoxin accumulation inhibition) ([1]; 50 µM) | A.I. (%) (aflatoxin accumulation inhibition) ([1]; 100 µM) | G.I. (%) (A. flavus growth inhibition) (A. flavus; 100 µM) | other results |
| --- | --- | --- | --- | --- |
| Bis(2-acetylfuranthiosemicarbazonato) zinc(II) [2-acfurTS-Zn] |  |  |  | viability (Hs27 cells; 0.5 µM): 100 ± 7.72%; viability (Hs27 cells; 1 µM): 100 ± 7.88%; viability (Hs27 cells; 5 µM): 100 ± 7.7%; viability (Hs27 cells; 10 µM): 100 ± 12.7%; viability (Hs27 cells; 50 µM): 16.5 ± 0.62%; viability (Hs27 cells; 100 µM): 15.2 ± 0.73%; GI50 (Hs27 cells): 30.5 µM; impact on fungal growth compared with the ligand (A. flavus; 100 µM): slightly less effective |
| O=C(O)c1ccc2c(c1)C(=O)c1ccccc1C2=O [Anthraquinone‐2‐carboxylic acid] | 56,0% | 80,0% |  | DNA damage as chromosomal aberrations in Allium root cells (A. cepa root cells): induced DNA damage as chromosomal aberrations; effect on A. cepa root length (A. cepa): reduction of A. cepa root length |
| CCCCC(=NNC(N)=S)c1ccccc1 [Valerophenone thiosemicarbazone] |  | 55,0% | 54,0% | DNA damage as chromosomal aberrations in Allium root cells (A. cepa root cells): induced DNA damage as chromosomal aberrations |
| CN(C)C(=S)NN=Cc1ccccc1 [benzaldehyde 4,4'‐dimethyl thiosemicarbazone] | 76,0% | 90,0% |  | mitotic index / interference with cell division (A. cepa root cells; respect to the control): lower mitotic index; mutagenicity in bacteria [2]: without showing any mutagenic effect |
| C=C(C)C1CC=C(C=NNC(N)=S)CC1 (stereo not shown) [Perillaldehyde thiosemicarbazone] | 78,0% | 87,3% | 73,5% |  |
| CCCCCCCCCCC=NNC(N)=S [Undecanal thiosemicarbazone] | 72,0% | 93,0% | 62,0% | G.I. (%) (A. flavus growth inhibition) (A. flavus; 50 µM): 78,0% |
| Cu(II) Quinolinecarboxaldehyde bisthiosemicarbazonate | 55,7% | 88,0 | 60,7% |  |
| Bis(2-acetylthiophenethiosemicarbazonato) copper(II) [2-actpTS-Cu] | 56,5% | 88,6% |  | viability (Hs27 cells; 0.5 µM): 90.7 ± 4.69%; viability (Hs27 cells; 1 µM): 87.1 ± 3.53%; viability (Hs27 cells; 5 µM): 72.1 ± 3.35%; viability (Hs27 cells; 10 µM): 16.2 ± 0.84%; viability (Hs27 cells; 50 µM): 14.6 ± 0.85%; viability (Hs27 cells; 100 µM): 15 ± 0.2%; GI50 (Hs27 cells): 6.2 µM |
| Mn(II) 2‐acetylthiophene bisthiosemicarbazonate | 61,0% | 92,0% | 53,0% |  |
| Cu(II) bisvanillin thiosemicarbazonate | 53,0% | 77,0% | 65,5% |  |
| Bisvanillin thiosemicarbazone |  | 61,0% | 57,0% |  |
| CC(C)c1cccc(C=NN(C)C(N)=S)c1 [3‐isopropyl benzaldehyde‐2‐methyl‐thiosemicarbazone] |  | 62,7% | 70,6% |  |
| Cu(II) jasmone bisthiosemicarbazonate | 78,0% | 97,0% | 74,3% |  |
| Ni(II) Cuminaldehyde bisthiosemicarbazonate | 91,5% | 96,0% | 90,0% | G.I. (%) (A. flavus growth inhibition) (A. flavus; 50 µM): 84,0% |
| CN(N=CC=Cc1ccccc1)C(N)=S [Cinnamaldehyde 2‐methyl thiosemicarbazone] |  | 64,0% |  | DNA damage as chromosomal aberrations in Allium root cells (A. cepa root cells): induced DNA damage as chromosomal aberrations |
| CCCCCCCCCC=NNC(N)=S [Decanal thiosemicarbazone] |  | 62,0% | 96,0% | G.I. (%) (A. flavus growth inhibition) (A. flavus; 50 µM): 96,0% |

| Compound | A.I. (%) (aflatoxin accumulation inhibition) ([1]; 50 µM) | A.I. (%) (aflatoxin accumulation inhibition) ([1]; 100 µM) | G.I. (%) (A. flavus growth inhibition) (A. flavus; 100 µM) | other results |
| --- | --- | --- | --- | --- |
| Cu(II) 2‐isopropyl benzaldehyde‐2‐methyl‐thiosemicarbazone di acetate | 71,4% | 86,7% | 95% | G.I. (%) (A. flavus growth inhibition) (A. flavus; 50 µM): 90,0% |
| NC(=S)N/N=C\C=C\c1ccccc1 [Cinnamaldehyde thiosemicarbazone] |  |  |  | inhibition at 100 µM (A. flavus; 100 µM): 56%; inhibition at 50 µM [1, 3]: 73.1%; inhibition at 100 µM [1, 3]: 79% |
| Ni(II) citronellal bisthiosemicarbazonate |  | 82,1% | 58,9% |  |
| Ni(II) Cinnamaldehyde bisthiosemicarbazonate | 95,0% | 100% | 100% | G.I. (%) (A. flavus growth inhibition) (A. flavus; 50 µM): 87,9% |
| Cu(II) fenchone bisthiosemicarbazonate | 62,0% | 84,0% | 57,0% |  |
| CN(C)C(=S)NN=CC=Cc1ccccc1 [Cinnamaldehyde 4,4‐dimethyl thiosemicarbazone] | 100% | 100% |  | mutagenicity in bacteria [2]: slight mutagenic activity; effect on A. cepa root length (A. cepa): reduction of A. cepa root length |
| CC(=NNC(N)=S)c1ccco1 [2-acfurTS, 2-acetylfuranthiosemicarbazone] |  |  |  | impact on fungal growth (A. flavus): modest inhibitory activity; maximum aflatoxin accumulation inhibition [1]: ≤ 28.7% |
| Cu(II) nonanal bisthiosemicarbazonate | 90,0% | 100% | 84,1% |  |
| Bis(2-acetylfuranthiosemicarbazonato) copper(II) [2-acfurTS-Cu] |  | 65,7% | 63,4% | viability (Hs27 cells; 0.5 µM): 92.8 ± 5.53%; viability (Hs27 cells; 1 µM): 99.4 ± 4.63%; viability (Hs27 cells; 5 µM): 98.9 ± 12.1%; viability (Hs27 cells; 10 µM): 100 ± 5.93%; viability (Hs27 cells; 50 µM): 36.9 ± 6.49%; viability (Hs27 cells; 100 µM): 35.6 ± 1.89%; GI50 (Hs27 cells): 39 µM; impact on fungal growth (A. flavus): higher fungistatic activity |
| NC(=S)NNC(=O)c1ccc2c(c1)C(=O)c1ccccc1C2=O [Anthraquinone‐2‐carbonyl‐1‐thiosemicarbazide] |  |  | 58,0% | mutagenicity in bacteria [2]: slight mutagenic activity |
| CCCCCCCC=NNC(N)=S [Octanal thiosemicarbazone] | 76,0% | 96,0% | 93,0% | G.I. (%) (A. flavus growth inhibition) (A. flavus; 50 µM): 82,0% |
| O=Cc1ccc2c(c1)C(=O)c1ccccc1C2=O [2‐Formylanthraquinone] |  |  |  | DNA damage as chromosomal aberrations in Allium root cells (A. cepa root cells): induced DNA damage as chromosomal aberrations; inhibition at 100 µM (A. flavus; 100 µM): 58% |
| Cu(II) apocynin bisthiosemicarbazonate | 52,0% | 72,0% | 72,0% | G.I. (%) (A. flavus growth inhibition) (A. flavus; 50 µM): 61,0% |
| Plumbagin thiosemicarbazone |  | 83,0% | 61,9% |  |
| Bis(2-acetylthiophenethiosemicarbazonato) zinc(II) [2-actpTS-Zn] | 60,4% | 85,4% |  | viability (Hs27 cells; 0.5 µM): 91.6 ± 7.33%; viability (Hs27 cells; 1 µM): 94.3 ± 2.25%; viability (Hs27 cells; 5 µM): 81.9 ± 5.34%; viability (Hs27 cells; 10 µM): 60.1 ± 1.57%; viability (Hs27 cells; 50 µM): 15.5 ± 0.56%; viability (Hs27 cells; 100 µM): 16 ± 1.39%; GI50 (Hs27 cells): 15.4 µM |

Source: article PMC8123576 (International Journal of Molecular Sciences, 2021)
